# Test results published in PubChem BioAssay (NCI).
#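 Tested at 5 concentrations; 48 h exposure; 96-well plates; endpoints linearly interpolated, else capped at highest concentration. TGI is the concentration that stops growth completely.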
# Columns and labels:
# Assay in all cases: NCI-60 cell line screen, 48 h
# CAKI-1 renal = tested on: CAKI-1 renal
# SNB-19 CNS = tested on: SNB-19 CNS
# MDA-MB-435 = tested on: MDA-MB-435
# NCI-H460 lung = tested on: NCI-H460 lung
# TK-10 renal = tested on: TK-10 renal
# K-562 leukemia = tested on: K-562 leukemia
# IGROV1 ovarian = tested on: IGROV1 ovarian
# HL-60(TB) leukemia = tested on: HL-60(TB) leukemia
# RXF 393 renal = tested on: RXF 393 renal
# 786-0 renal = tested on: 786-0 renal
# UACC-257 melanoma = tested on: UACC-257 melanoma
# SW-620 colon = tested on: SW-620 colon
# HCT-116 colon = tested on: HCT-116 colon
# MDA-MB-231 breast = tested on: MDA-MB-231 breast
# HCT-15 colon = tested on: HCT-15 colon
# SF-295 CNS = tested on: SF-295 CNS
# U251 CNS = tested on: U251 CNS
# A498 renal = tested on: A498 renal
# MOLT-4 leukemia = tested on: MOLT-4 leukemia
# COLO 205 colon = tested on: COLO 205 colon
# NCI-H522 lung = tested on: NCI-H522 lung
# MALME-3M melanoma = tested on: MALME-3M melanoma
# ACHN renal = tested on: ACHN renal
# UACC-62 melanoma = tested on: UACC-62 melanoma
# SK-OV-3 ovarian = tested on: SK-OV-3 ovarian
# EKVX NSCLC = tested on: EKVX NSCLC
# NCI/ADR-RES ovarian = tested on: NCI/ADR-RES ovarian
# MCF7 breast = tested on: MCF7 breast
# SR leukemia = tested on: SR leukemia
# NCI-H226 lung = tested on: NCI-H226 lung
# BT-549 breast = tested on: BT-549 breast
# SF-268 CNS = tested on: SF-268 CNS
# OVCAR-3 ovarian = tested on: OVCAR-3 ovarian
# HT29 colon = tested on: HT29 colon
# OVCAR-4 ovarian = tested on: OVCAR-4 ovarian
# DU-145 prostate = tested on: DU-145 prostate
# UO-31 renal = tested on: UO-31 renal
# SF-539 CNS = tested on: SF-539 CNS
# SK-MEL-2 melanoma = tested on: SK-MEL-2 melanoma
# A549 NSCLC = tested on: A549 NSCLC
# SK-MEL-5 melanoma = tested on: SK-MEL-5 melanoma
# OVCAR-5 ovarian = tested on: OVCAR-5 ovarian
# RPMI-8226 leukemia = tested on: RPMI-8226 leukemia
# SN12C renal = tested on: SN12C renal
# KM12 colon = tested on: KM12 colon
# PC-3 prostate = tested on: PC-3 prostate
# T-47D breast = tested on: T-47D breast
# NCI-H23 lung = tested on: NCI-H23 lung
# OVCAR-8 ovarian = tested on: OVCAR-8 ovarian
# M14 melanoma = tested on: M14 melanoma
# LOX IMVI melanoma = tested on: LOX IMVI melanoma
# MDA-N = tested on: MDA-N
# SNB-75 CNS = tested on: SNB-75 CNS
# HS 578T breast = tested on: HS 578T breast
# HOP-62 NSCLC = tested on: HOP-62 NSCLC
# CCRF-CEM leukemia = tested on: CCRF-CEM leukemia
# HOP-92 NSCLC = tested on: HOP-92 NSCLC
# SK-MEL-28 melanoma = tested on: SK-MEL-28 melanoma
smiles,measurement,setting,value
COc1ccc2nc(-c3ccc(O)cc3)sc2c1,TGI,CAKI-1 renal,57.5 µM
same,TGI,SNB-19 CNS,> 100 µM
same,TGI,MDA-MB-435,56 µM
same,TGI,NCI-H460 lung,> 100 µM
same,TGI,TK-10 renal,70.2 µM
same,TGI,K-562 leukemia,> 100 µM
same,TGI,IGROV1 ovarian,36.2 µM
same,TGI,HL-60(TB) leukemia,53.5 µM
same,TGI,RXF 393 renal,40.9 µM
same,TGI,786-0 renal,29.1 µM
same,TGI,UACC-257 melanoma,39 µM
same,TGI,SW-620 colon,44.5 µM
same,TGI,HCT-116 colon,32.7 µM
same,TGI,MDA-MB-231 breast,46.9 µM
same,TGI,HCT-15 colon,36.5 µM
same,TGI,SF-295 CNS,42.6 µM
same,TGI,U251 CNS,36.2 µM
same,TGI,A498 renal,85.7 µM
same,TGI,MOLT-4 leukemia,78.3 µM
same,TGI,COLO 205 colon,44.6 µM
same,TGI,NCI-H522 lung,31.2 µM
same,TGI,MALME-3M melanoma,51.6 µM
same,TGI,ACHN renal,32.5 µM
same,TGI,UACC-62 melanoma,42.9 µM
same,TGI,SK-OV-3 ovarian,91.2 µM
same,TGI,EKVX NSCLC,35.7 µM
same,TGI,NCI/ADR-RES ovarian,72.6 µM
same,TGI,MCF7 breast,> 100 µM
same,TGI,SR leukemia,22.5 µM
same,TGI,NCI-H226 lung,45.8 µM
same,TGI,BT-549 breast,36.3 µM
same,TGI,SF-268 CNS,49.5 µM
same,TGI,OVCAR-3 ovarian,36.2 µM
same,TGI,HT29 colon,37.2 µM
same,TGI,OVCAR-4 ovarian,44.5 µM
same,TGI,DU-145 prostate,> 100 µM
same,TGI,UO-31 renal,30.1 µM
same,TGI,SF-539 CNS,37.1 µM
same,TGI,SK-MEL-2 melanoma,> 100 µM
same,TGI,A549 NSCLC,> 100 µM
same,TGI,SK-MEL-5 melanoma,38 µM
same,TGI,OVCAR-5 ovarian,31.6 µM
same,TGI,RPMI-8226 leukemia,0.678 µM
same,TGI,SN12C renal,39.5 µM
same,TGI,KM12 colon,86.9 µM
same,TGI,PC-3 prostate,45.2 µM
same,TGI,T-47D breast,36.7 µM
same,TGI,NCI-H23 lung,43.6 µM
same,TGI,OVCAR-8 ovarian,45.1 µM
same,TGI,M14 melanoma,47.5 µM
same,TGI,LOX IMVI melanoma,44.9 µM
same,TGI,MDA-N,50.8 µM
O=c1c(O)c(-c2cc(O)c(O)c(O)c2)oc2cc(O)cc(O)c12,TGI,CAKI-1 renal,54 µM
same,TGI,MDA-MB-435,34.8 µM
same,TGI,NCI-H460 lung,39.1 µM
same,TGI,TK-10 renal,> 100 µM
same,TGI,K-562 leukemia,> 100 µM
same,TGI,IGROV1 ovarian,> 100 µM
same,TGI,HL-60(TB) leukemia,> 100 µM
same,TGI,RXF 393 renal,43.4 µM
same,TGI,SNB-75 CNS,> 100 µM
same,TGI,786-0 renal,44.8 µM
same,TGI,UACC-257 melanoma,> 100 µM
same,TGI,HS 578T breast,> 100 µM
same,TGI,SW-620 colon,36 µM
same,TGI,HCT-116 colon,34.1 µM
same,TGI,MDA-MB-231 breast,35.8 µM
same,TGI,HCT-15 colon,71.8 µM
same,TGI,SF-295 CNS,36.3 µM
same,TGI,U251 CNS,32.8 µM
same,TGI,HOP-62 NSCLC,41.4 µM
same,TGI,A498 renal,> 100 µM
same,TGI,MOLT-4 leukemia,> 100 µM
same,TGI,COLO 205 colon,> 100 µM
same,TGI,NCI-H522 lung,> 100 µM
same,TGI,MALME-3M melanoma,> 100 µM
same,TGI,ACHN renal,> 100 µM
same,TGI,CCRF-CEM leukemia,> 100 µM
same,TGI,UACC-62 melanoma,> 100 µM
same,TGI,SK-OV-3 ovarian,> 100 µM
same,TGI,HOP-92 NSCLC,> 100 µM
same,TGI,NCI/ADR-RES ovarian,53.2 µM
same,TGI,MCF7 breast,37.4 µM
same,TGI,SR leukemia,> 100 µM
same,TGI,NCI-H226 lung,57.1 µM
same,TGI,BT-549 breast,> 100 µM
same,TGI,SK-MEL-28 melanoma,> 100 µM
same,TGI,SF-268 CNS,> 100 µM
same,TGI,OVCAR-3 ovarian,89.7 µM
same,TGI,HT29 colon,38.9 µM
same,TGI,OVCAR-4 ovarian,30.2 µM
same,TGI,DU-145 prostate,> 100 µM
same,TGI,UO-31 renal,> 100 µM
same,TGI,SF-539 CNS,> 100 µM
same,TGI,SK-MEL-2 melanoma,> 100 µM
same,TGI,A549 NSCLC,> 100 µM
same,TGI,SK-MEL-5 melanoma,> 100 µM
same,TGI,OVCAR-5 ovarian,> 100 µM
same,TGI,RPMI-8226 leukemia,> 100 µM
same,TGI,KM12 colon,33.1 µM
same,TGI,PC-3 prostate,> 100 µM
same,TGI,T-47D breast,> 100 µM
same,TGI,NCI-H23 lung,35.4 µM
same,TGI,OVCAR-8 ovarian,33.2 µM
same,TGI,M14 melanoma,> 100 µM
same,TGI,LOX IMVI melanoma,31 µM
same,TGI,MDA-N,24.5 µM
